Measured values: patent US4902698A, “Benzenesulphonamidopyridyl compounds which are useful as thromboxane A 2” (Smith Kline & French Laboratories Limited, priority 1988, dated 1990)

These compounds were tested against T1, TXA2 receptors (Homo sapiens, UniProt P21731) (assay: human platelet binding assay ([125I]PTA-OH as receptor ligand)). Conditions: 50% inhibition of specific [^125 I]PTA-OH binding, human platelets.
T1 construct: endogenous in cells; host or cells: human platelets
T1 sequence (P21731 1-343): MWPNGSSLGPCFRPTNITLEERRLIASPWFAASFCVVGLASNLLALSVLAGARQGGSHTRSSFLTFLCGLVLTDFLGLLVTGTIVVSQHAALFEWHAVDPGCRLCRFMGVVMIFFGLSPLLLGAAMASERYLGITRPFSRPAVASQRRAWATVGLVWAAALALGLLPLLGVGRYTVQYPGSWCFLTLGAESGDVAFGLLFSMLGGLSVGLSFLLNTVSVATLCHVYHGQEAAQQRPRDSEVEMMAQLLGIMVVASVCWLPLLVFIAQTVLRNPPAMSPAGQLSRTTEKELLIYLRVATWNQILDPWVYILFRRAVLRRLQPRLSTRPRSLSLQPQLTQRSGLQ
Method: As indicated above, compounds of the formula (I) have biological activity that is indicative of an ability to antagonise TXA2 receptors.
The platelet binding assay used was essentially the method described by Mais et al. J. Pharm. Exp. Ther., 1985, 235(3), 729-734 where [^125 I]PTA-OH was used as the receptor ligand.
The IC50 values represent the concentration which produces a 50% inhibition of specific [^125 I]PTA-OH binding.
The compounds of Examples 1 and 5 were tested in the human platelet binding assay.

How did the IC50 turn out when `O=C(O)CCCc1ccc(NS(=O)(=O)c2ccc(Cl)c(Cl)c2)cn1` [Example 15, 4-[5-(3,4-Dichlorobenzenesulphonamido)pyrid-2-yl]butanoic acid] was run?
Its IC50 is 2100 nM.

`O=C(O)CCCc1ccc(NS(=O)(=O)c2ccc(Br)cc2)cn1` [Example 13, 4-[5-(4-Bromobenzenesulphonamido)pyrid-2-yl]butanoic acid] was tested. Which IC50 did it give?
Its IC50 is 200 nM.

Which IC50 does the source give for `O=C(O)CCCCc1ccc(NS(=O)(=O)c2ccc(Cl)cc2)cn1` [Example 6, 5-[5-(4-Chlorobenzenesulphonamido)pyrid-2-yl]pentanoic acid] here?
Its IC50 is 1000 nM.

With `Cc1ccc(S(=O)(=O)Nc2ccc(CCCC(=O)O)nc2)cc1` [Example 14, 4-[5-(4-Methylbenzenesulphonamido)pyrid-2-yl]butanoic acid] as the compound, how does the IC50 read?
Its IC50 is 600 nM.

`O=C(O)CCCc1ccc(S(=O)(=O)Nc2ccc(Cl)cc2)cn1` [Example 9, 4-[5-(4-Chlorophenylsulphamoyl)pyrid-2-yl]-butanoic acid] was tested. Which IC50 did it give?
The IC50 was 21000 nM.

Which IC50 does the source give for `Cc1cc(NS(=O)(=O)c2ccccc2)cnc1CCCC(=O)O` [Example 3, 4-(5-Benzenesulphonamido-3-methylpyrid-2-yl)butanoic acid] here?
Its IC50 is 2600 nM.

With `O=C(O)CCCc1ccc(NS(=O)(=O)c2ccccc2)cn1` [Example 1, 4-(5-Benzenesulphonamidopyrid-2-yl)butanoic acid] as the compound, how does the IC50 read?
Its IC50 is 1300 nM.

With `O=C(O)CCCc1ncccc1NS(=O)(=O)c1ccccc1` [Example 4, 4-(3-Benzenesulphonamidopyrid-2-yl)butanoic acid] as the compound, how does the IC50 read?
The IC50 was 102000 nM.

Which IC50 does the source give for `COc1ccc(S(=O)(=O)Nc2ccc(CCCC(=O)O)nc2)cc1` [Example 11, 4-[5-(4-Methoxybenzenesulphonamido)pyrid-2-yl]butanoic acid] here?
Its IC50 is 5200 nM.

With `O=C(O)CCCc1ccc(NS(=O)(=O)c2cccc(C(F)(F)F)c2)cn1` [Example 12, 4-[5-(3-Trifluoromethylbenzenesulphonamido)-pyrid-2-yl]butanoic acid] as the compound, how does the IC50 read?
The IC50 was 16000 nM.

How did the IC50 turn out when `O=C(O)CCCc1ccc(S(=O)(=O)Nc2ccccc2)cn1` [Example 10, 4-[5-(Phenylsulphamoyl)pyrid-2-yl)butanoic acid] was run?
Its IC50 is 28000 nM.

How did the IC50 turn out when `O=C(O)CCCc1ccc(NS(=O)(=O)c2ccc(Cl)cc2)cn1` [Example 2, 4-[5-(4-Chlorobenzenesulphonamido)pyrid-2-yl]-butanoic acid] was run?
The IC50 was 360 nM.

For `O=C(O)CCCc1ccc(NS(=O)(=O)c2cccc(Cl)c2)cn1` [Example 5, 4-[5-(3-Chlorobenzenesulphonamido)pyrid-2-yl]butanoic acid], which IC50 is on record?
The IC50 was 1200 nM.

For `O=C(O)CCc1ccc(NS(=O)(=O)c2ccc(Cl)cc2)cn1` [Example 8, 3-[5-(4-Chlorobenzenesulphonamido)pyrid-2-yl]propionic acid], which IC50 is on record?
The IC50 was 251000 nM.

With `O=C(O)CCCCc1ccc(NS(=O)(=O)c2ccccc2)cn1` [Example 7, 5-[5-(Benzenesulphonamido)pyrid-2-yl]pentanoic acid] as the compound, how does the IC50 read?
The IC50 was 4000 nM.
